Assay results published in PMC5324734, “DOTA-Derivatives of Octreotide Dicarba-Analogs with High Affinity for Somatostatin sst2,5 Receptors” (Frontiers in Chemistry, 2017).
Values joined by “and” are separate entries in the source; they are usually repeats but may differ in a detail not shown here. Identical values can stand only once. Like-named read-outs stand apart in the source and are kept apart here. Where a SMILES comes first, the peptide text is derived from it. Bridges are numbered along the chain shown (N, C = ends). [ ]: non-standard residue; d: D form. The star is where a group is joined. DOTA = O=C(O)CN1CCN(CC(=O)O)CCN(CC(=O)*)CCN(CC(=O)O)CC1; 1Nal = N[C@@H](Cc1cccc2ccccc12)C(=O)O; Thr(ol) = C[C@@H](O)[C@H](N)CO; AllylGly = C=CC[C@H](N)C(=O)O; Bn = c1ccc(C*)cc1

Legend:
sst2 receptor [1] = biological target: T1, sst2 receptor (Homo sapiens, UniProt P30874); experiment: Somatostatin receptor affinity, displacement of 125I-[LTT]-SRIF-28 (sst2); format: binding; conditions: complete displacement of [Leu8,D-Trp22,125I-Tyr25]-SRIF-28; cell membrane pellets from human sst2-expressing endogeneous IMR32 cells; CEREP; mean ± SEM of three independent repetitions
T1 construct: Cell membrane pellets were prepared from human sst2-expressing endogeneous IMR32 cells; host or cells: IMR32 cells (membrane pellets)
Procedure: (§1) Determination of Somatostatin receptors affinity was performed at CEREP (Le Bois l'Evêque, B. P. 3,001, 86,600 Celle l'Evescault, France). Cell membrane pellets were prepared from human sst2-expressing endogeneous IMR32 cells, and sst5-expressing human CHO cells. For each of the tested compounds, complete displacement experiments with the universal SRIF radio-ligand [Leu^8, D-Trp^22, ^125I-Tyr^25]-SRIF-28 (125I-[LTT]-SRIF-28) (2000 Ci/mmol; Anawa, Wangen, Switzerland) were performed. As control, unlabeled seglitide and SRIF-14 were run in parallel, using the same increasing concentrations, with sst2 and sst5 subtypes, respectively. IC50 values were calculated by non-linear regression analysis of the competition curves generated with mean replicate values using Hill equation curve. The analysis was performed using software developed at CEREP (Hill software) and validated by comparison with data generated by the commercial software SigmaPlot 4.0 for Windows.
(§2) The three DOTA conjugated compounds 3b, 4b, and 5b were tested for their ability to bind to the sst2 and sst5 receptors subtypes in complete displacement experiments using the universal somatostatin radioligand [^125I]-[Leu^8,D-Trp^22,Tyr^25]-somatostatin-28. IC50 values were calculated after quantification of the data using a computer-assisted image processing system (Table 1). Receptor subtypes sst2 and sst5 were chosen for preliminary binding assays because of their overexpression in some tumor types (Miller et al., [1995]). In Table 1, the affinities of the parent unconjugated compounds 3a, 4a, and 5a are also reported for comparison (Di Cianni et al., [2010]).

sst5 receptor [2] = biological target: T2, sst5 receptor (Homo sapiens, UniProt P35346); experiment: Somatostatin receptor affinity, displacement of 125I-[LTT]-SRIF-28 (sst5); format: binding; conditions: complete displacement of [Leu8,D-Trp22,125I-Tyr25]-SRIF-28; cell membrane pellets from sst5-expressing human CHO cells; CEREP; mean ± SEM of three independent repetitions
T2 construct: host or cells: CHO cells (membrane pellets)
Procedure: as §1, §2

[3] = native hormone; ref Weckbecker et al., 2003; cited from earlier work
Source text: Radiolabeled peptides, targeting specific receptors of malignant cells, in primis GPCRs, have emerged in the past years as one of the most promising tools for diagnosis and therapy of several kinds of metastatic tumors which express these receptors (Ramogida and Orvig, [2013]). Somatostatins SRIF-14 and SRIF-28 are peptide hormones, which have a wide range of pharmacological actions on exocrine and endocrine secretions (Brazeau et al., [1973]) mediated by direct interaction with at least five GPCRs. Chemically, they are -S-S- bridged cyclic peptides containing 14 and 28 amino acids, respective ...

sst2 receptor [4] = biological target: T1, sst2 receptor; set-up: method as in Di Cianni et al., 2010; conditions: free (unconjugated) dicarba-analogs; mean ± SEM; data published previously; ref Di Cianni et al., 2010; cited from earlier work
sst5 receptor [5] = biological target: T2, sst5 receptor; set-up: method as in Di Cianni et al., 2010; conditions: free (unconjugated) dicarba-analogs; mean ± SEM; data published previously; ref Di Cianni et al., 2010; cited from earlier work

T2 sequence (P35346 whole entry): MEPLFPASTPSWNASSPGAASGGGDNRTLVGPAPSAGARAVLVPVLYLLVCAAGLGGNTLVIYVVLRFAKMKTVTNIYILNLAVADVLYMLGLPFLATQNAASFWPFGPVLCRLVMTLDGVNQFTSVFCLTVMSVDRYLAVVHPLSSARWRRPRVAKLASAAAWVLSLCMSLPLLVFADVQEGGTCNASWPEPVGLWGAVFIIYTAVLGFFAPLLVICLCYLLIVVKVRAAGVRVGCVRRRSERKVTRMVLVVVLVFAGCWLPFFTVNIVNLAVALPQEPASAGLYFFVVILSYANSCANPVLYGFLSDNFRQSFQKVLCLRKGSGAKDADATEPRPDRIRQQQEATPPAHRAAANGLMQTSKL
T1 sequence (P30874 whole entry): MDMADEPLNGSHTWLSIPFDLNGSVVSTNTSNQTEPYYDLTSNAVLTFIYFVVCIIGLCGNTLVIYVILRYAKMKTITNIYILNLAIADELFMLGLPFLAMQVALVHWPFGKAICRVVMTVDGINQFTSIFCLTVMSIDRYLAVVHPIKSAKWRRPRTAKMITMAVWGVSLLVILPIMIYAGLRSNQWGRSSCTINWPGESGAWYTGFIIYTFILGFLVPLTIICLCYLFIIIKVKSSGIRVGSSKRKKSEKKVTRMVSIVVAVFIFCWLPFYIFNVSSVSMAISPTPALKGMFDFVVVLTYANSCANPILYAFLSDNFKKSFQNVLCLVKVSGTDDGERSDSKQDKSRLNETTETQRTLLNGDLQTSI

Molecule	IC50 (sst2 receptor [1])	IC50 (sst5 receptor [2])	in vivo half-life [3]	IC50 (sst2 receptor [4])	IC50 (sst5 receptor [5])
C[C@@H](O)[C@@H](CO)NC(=O)[C@@H]1C/C=C\C[C@H](NC(=O)[C@@H](Cc2ccccc2)NC(=O)CN2CCN(CC(=O)O)CCN(CC(=O)O)CCN(CC(=O)O)CC2)C(=O)N[C@@H](Cc2ccccc2)C(=O)N[C@H](Cc2c[nH]c3ccccc23)C(=O)N[C@@H](CCCCN)C(=O)N[C@@H](Cc2ccc(OCc3ccccc3)cc2)C(=O)N1 [Compound 4b] ({DOTA}-[dF][AllylGly]F[dW]KY(Bn)[AllylGly][Thr(ol)]; staple (Z) 2-7)	> 300 nM	91 ± 7.8 nM	–	–	–
SRIF-14: native somatostatin peptide hormone, -S-S- bridged cyclic peptide containing 14 amino acids	–	–	< 3 min	–	–
C[C@@H](O)[C@@H]1NC(=O)[C@H](CCCCN)NC(=O)[C@@H](Cc2c[nH]c3ccccc23)NC(=O)[C@H](Cc2cccc3ccccc23)NC(=O)[C@@H](NC(=O)[C@H](N)Cc2ccccc2)C/C=C\C[C@@H](C(=O)N[C@H](CO)[C@@H](C)O)NC1=O [Compound 3a] (H-[dF][AllylGly][1Nal][dW]KT[AllylGly][Thr(ol)]; staple (Z) 2-7)	–	–	–	9.6 ± 0.9 nM	16.5 ± 4.5 nM
C[C@@H](O)[C@@H](CO)NC(=O)[C@@H]1C/C=C\C[C@H](NC(=O)[C@H](N)Cc2ccccc2)C(=O)N[C@@H](Cc2ccccc2)C(=O)N[C@H](Cc2c[nH]c3ccccc23)C(=O)N[C@@H](CCCCN)C(=O)N[C@@H](Cc2ccc(OCc3ccccc3)cc2)C(=O)N1 [Compound 4a] (H-[dF][AllylGly]F[dW]KY(Bn)[AllylGly][Thr(ol)]; staple (Z) 2-7)	–	–	–	46 ± 3 nM	12.3 ± 0.3 nM
C[C@@H](O)[C@@H]1NC(=O)[C@H](CCCCN)NC(=O)[C@@H](Cc2c[nH]c3ccccc23)NC(=O)[C@H](Cc2cccc3ccccc23)NC(=O)[C@@H](NC(=O)[C@@H](Cc2ccccc2)NC(=O)CN2CCN(CC(=O)O)CCN(CC(=O)O)CCN(CC(=O)O)CC2)C/C=C\C[C@@H](C(=O)N[C@H](CO)[C@@H](C)O)NC1=O [Compound 3b] ({DOTA}-[dF][AllylGly][1Nal][dW]KT[AllylGly][Thr(ol)]; staple (Z) 2-7)	61 ± 5.4 nM	130 ± 7 nM	–	–	–
C[C@@H](O)[C@@H](CO)NC(=O)[C@@H]1C/C=C\C[C@H](NC(=O)[C@H](N)Cc2ccccc2)C(=O)N[C@@H](Cc2cccc3ccccc23)C(=O)N[C@H](Cc2c[nH]c3ccccc23)C(=O)N[C@@H](CCCCN)C(=O)N[C@@H](Cc2ccc(OCc3ccccc3)cc2)C(=O)N1 [Compound 5a] (H-[dF][AllylGly][1Nal][dW]KY(Bn)[AllylGly][Thr(ol)]; staple (Z) 2-7)	–	–	–	101 ± 9 nM	4.9 ± 1 nM
C[C@@H](O)[C@@H](CO)NC(=O)[C@@H]1C/C=C\C[C@H](NC(=O)[C@@H](Cc2ccccc2)NC(=O)CN2CCN(CC(=O)O)CCN(CC(=O)O)CCN(CC(=O)O)CC2)C(=O)N[C@@H](Cc2cccc3ccccc23)C(=O)N[C@H](Cc2c[nH]c3ccccc23)C(=O)N[C@@H](CCCCN)C(=O)N[C@@H](Cc2ccc(OCc3ccccc3)cc2)C(=O)N1 [Compound 5b] ({DOTA}-[dF][AllylGly][1Nal][dW]KY(Bn)[AllylGly][Thr(ol)]; staple (Z) 2-7)	> 100 nM and 160 nM	12 ± 2.6 nM	–	–	–
